The source of these data is patent US20130005749A1, “NOVEL FORMULATION AND TREATMENT METHODS” (The University of Queensland, priority 2011, published 2013).

The test system of data set [1] is inflammatory bowel disease. The following applies: after one year; Ansari et al. 2008; cited from earlier work.
Another data set has as its system ulcerative colitis. Briefly: Human patient R-LS with ulcerative colitis. As to the method:
Because treatment with AZA and 6-MP was not an option, they were treated instead with 6-TG using the conventional therapeutic protocol, namely bolus administration of 40 mg per day (R-LS weighs approximately 60 kg) and 5-aminosalicylic acid.
Again, they were treated with 6-TG using the conventional therapeutic protocol, namely bolus administration of 40 mg per day and balsalazide. […] Maintenance therapy to prevent relapse was again prescribed using a lower dose of balsalazide.
Given their clinical history, the inventors were reluctant to prescribe another bolus dose of 6-TG due to the known hepatotoxic side-effects that could occur.
Accordingly, R-LS was given 60 mg per day 6-TG in a divided dosage (3 separate doses of equal amounts). The doses were given at intervals throughout the day.

For a further data set, the system named is acute childhood leukemia. The note with it: cited from earlier work; for prevalence of VOD in patients: acute childhood leukemia cases, Stork et al. 2010.
Data set [2] relates to Winnie (C57Bl/6 Muc2 Winnie/Winnie) mice. Briefly: SOS in Winnie mice. The data set is classed as in vivo. As to the method: (§1) The total possible VOD score was 240.
(§2) Male or female C57Bl/6 Winnie mice were gavaged twice daily for 11-days in an experiment with three groups (6 animals per group):
(§3) Group 1: 1.25 mg/kg 6TG evening and morning (total 2.5 mg/kg/d, N=6)
(§4) Group 3: 2.5 mg/kg/d 6TG in the morning and vehicle gavage in the afternoon ([…]).
(§5) Male or female C57Bl/6 Winnie mice were gavage once daily for 28-days in an experiment with two groups (6 animals per group):
(§6) Group 1: 0.5 mg/kg 6TG once daily gavage

The subject of another data set is C57BL/6 mice. Briefly: Veno-occlusive disease (VOD/SOS) blinded histological score in C57BL/6 mice. The following applies: 10 days.
Another data set has as its system HPRT−/− C57BL/6 mice. Briefly: VOD score in HPRT-/- mouse model. The following applies: all dosage levels including 1 and 2.5 mg/kg body weight, gavage each day for 14 days. The data set is classed as in vivo.
Excerpt: as §1

The subject of data set [3] is Winnie (C57Bl/6 Muc2 Winnie/Winnie) mice. In words: Histological colitis scores in Winnie mouse model of spontaneous colitis. It is filed as in vivo. As to the method: This experiment usesa mouse model of spontaneous colitis called Winnie(C57Bl/6 Muc2^Winnie/Winnie) due to a single SNP mutation in Muc2 in C57Bl/6 mice. The model resembles ulcerative colitis. The mutation confers an intestinal epithelial cell defect, which causes a Th17 dominant inflammatory response (Heazlewood et al. 2008 and Eri et al. 2011).
as §2, §3
Group 2: vehicle control twice daily (N=6), or
as §4
This experiment uses Winnie(C57Bl/6 Muc2^Winnie/Winnie).
as §5, §6
Group 2: vehicle control (N=6),

For data set [4] the test system is unchanged. Briefly: Immunosuppression (venous blood leukocytes) and myelotoxicity in Winnie mice. It is filed as in vivo. The note with it: for immunosuppression (reductions in venous blood leukocytes): 11 days. As to the method:
as §2, §3, §4, §5, §6

Setting [5] is: 0.5 mg/kg once daily gavage, 28 days.

For the compound `Cn1cnc([N+](=O)[O-])c1Sc1ncnc2nc[nH]c12` [AZA, 6-(3-methyl-5-nitroimidazol-4-yl)sulfanyl-7H-purine], in data set [1], the “patients who stop therapy due to side-effects or non-responsiveness” value is on record as “approximately 40%”. In addition, in the data set with ulcerative colitis (human, in vivo), the adverse reactions result was “life-threatening adverse reactions”.
Consider `Sc1ncnc2nc[nH]c12` [Formulation 6-MP, 3,7-dihydropurine-6-thione], for which, in data set [1], the “patients who stop therapy due to side-effects or non-responsiveness” value is on record as “approximately 40%”. The “prevalence of VOD in patients” value in the data set on acute childhood leukemia is “not observed”. Further, the adverse reactions result in the data set on ulcerative colitis (human, in vivo) is “life-threatening adverse reactions”.
As to `Nc1nc2nc[nH]c2c(=S)[nH]1` [Formulation 6-TG, 2-amino-6,7-dihydro-3H-purine-6-thione], the SOS entry is reported as “did not occur” in data set [2] (setting [5]); “causes SOS” in data set [2] (2.5 mg/kg/d once daily gavage × 11 days); “SOS is largely avoided” in data set [2] (split 1.25 mg/kg b.d dose, 11 days). In addition, the “clinical effectiveness in treating the disease compared with 6-MP” value in the data set with acute childhood leukemia (Stork et al. 2010 (and others)) is reported as “equivalent or even more clinically effective”. Also, in the data set on acute childhood leukemia, the “prevalence of VOD in patients” value is “high prevalence of VOD”. In addition, the VOD entry with C57BL/6 mice (2.5 mg/kg body weight/day bolus by oral gavage) was “exhibited VOD”; in the data set on C57BL/6 mice (2.5 mg/kg body weight/day bolus intraperitoneally), “VOD was not observed”. Further, the “response to the treatment” value with ulcerative colitis (60 mg per day in 3 separate equal doses, six months (relapse December 2010)) is reported as “once again effective”; in the data set with ulcerative colitis (bolus 40 mg per day with 5-aminosalicylic acid, after 4 months (2003)) it was “extremely positive response”; in the data set on ulcerative colitis (bolus 40 mg per day with balsalazide, ~5-6 months (relapse 2006)), “positive response”. The VOD score entry in the data set on HPRT−/− C57BL/6 mice was “VOD was shown to be abrogated”. Moreover, the Histological colitis scores entry in data set [3] (0.5 mg/kg/d once daily gavage, 28 days) is recorded as “significantly improved spontaneous colitis”; in data set [3] (1.25 mg/kg twice daily gavage, 11 days), “significantly improved spontaneous colitis”; in data set [3] (2.5 mg/kg/d gavaged once daily, 11 days) it was “significantly improved spontaneous colitis”. Besides, the Immunosuppression result in data set [4] (setting [5]) is listed as “mild”. Further, the myelotoxicity entry in data set [4] (setting [5]) is recorded as “did not have myelotoxicity”. For the same compound, the “immunosuppression (reductions in venous blood leukocytes)” value in data set [4] (single full dosing 2.5 mg/kg/d) and in data set [4] (split dosing 1.25 mg/kg twice daily) was “moderate immunosuppression” throughout.
For `O=C(O)c1cc(/N=N/c2ccc(S(=O)(=O)Nc3ccccn3)cc2)ccc1O` [sulfasalazine], the adverse reactions entry in the data set on ulcerative colitis (patient history before 2003) was “life-threatening adverse reactions”.
